In patent publication US20090246250A1, “COATING COMPOSITIONS HAVING IMPROVED PERFORMANCE” (priority 2008, published 2009):
Square brackets hold non-standard residues; d marks the D form. Ends that are not written are not given here. AEEA = NCCOCCOCC(=O)O

Legend:
[1] = Vancomycin loading onto coated titanium bead (HCl elution, HPLC); type: binding; settings: peptide/polymer + vancomycin mixture 30 mins 20° C., PBS washes, 100 mM HCl eluate by HPLC
Experimental: The experimental procedure used for the embodiments described above was as follows. […] All three components were mixed and then applied to the metal bead. […] All three components were mixed and then applied to the metal bead. […] The mixtures were applied to the metal beads and incubated for 30 mins at 20° C. with 700 rpm shaking. The beads were washed three times with 350 ul PBS. Beads were analyzed as follows: 200 ul of 100 mM HCl was added to each bead and incubated for 30 mins at 20° C. with 1,000 rpm shaking. The eluate from each bead was analyzed by HPLC using Phenomenex Luna 3 um column, 50×4.60 mm. Output was compared to a standard curve for vancomycin to determine the amount of vancomycin retained onto the metal bead.

[2] = system: Staphylococcus aureus strain MZ100; assay: Tibia pin assay: coated titanium pins with vancomycin, bacterial cfu count; type: cell-based; set-up: key: —: “-” means no cfus; “many” means too many cfus to count, as they converge into one spot; settings: 3 hours 37° C.
From the text: In this assay, titanium pins were used as a model for tibia pins. Briefly, sterile pins were first coated with biofunctional composition (“SEQ ID NO:124-linker-SEQ ID NO:122”) comprising a substrate-binding peptide having binding specificity for vancomycin (“SEQ ID NO:124”) linked to a substrate-binding peptide having binding specificity for metal (“SEQ ID NO:122”), or a composition of the invention formed from compound comprising the biofunctional composition covalently coupled to fatty acid. The respective coatings also include vancomycin bound thereto. The coated pins were then placed in a silicone tube containing liquid bacterial growth medium and inoculated with bacteria. After incubation, the pins were removed, and then the liquid growth medium was serially diluted. The serial dilutions were inoculated onto bacterial culture plates, the plates were incubated, and counted on the plates were bacterial colonies.
In this assay, test samples (biofunctional composition (Table 6, “BC”) or compositions 133, 134, 135, 136 139) each were used to coat a pin by incubating the test sample (in a range of from about 0.8 mM to about 1 mM) with 2.5 μl of a 10 mM vancomycin solution and PBS to a final volume of 250 μl in a microtube (3 pins per tube) for 60 minutes at room temperature with occasional agitation. In a piece of silicone tubing (1.5 mm inner diameter, 50 mm long), added is tryptic soy broth+0.2% glucose, the coated pin, and 10^3 colony forming units (cfu) of Staphylococcus aureus strain MZ100 in either a 20 μl inoculum, 40 μl inoculum, or 60 μl inoculum. The tubing is clamped closed, and the tubing is incubated for 37° C. for 3 hours. After 3 hours, serial dilutions (1:10, 1:100, 1:1000) were made of the culture media from each tubing, and 10 μl of the undiluted culture medium and of each dilution were spotted onto the bacterial culture plate. The bacterial culture plate was incubated overnight at 37° C., and then the cfus were counted. The results, a composite of different assay runs, are shown in Table 6 (“-” means no cfus; “many” means too many cfus to count, as they converge into one spot; “NT” means not tested).

| Substance | Vancomycin Load [1] | cfu 1:10 ([2]; inoculum volume 20 μl) | cfu 1:100 ([2]; inoculum volume 20 μl) | cfu 1:1000 ([2]; inoculum volume 20 μl) | cfu undiluted ([2]; inoculum volume 20 μl) | cfu 1:10 ([2]; inoculum volume 40 μl) [cfu] | cfu 1:100 ([2]; inoculum volume 40 μl) [cfu] | cfu 1:1000 ([2]; inoculum volume 40 μl) | cfu undiluted ([2]; inoculum volume 40 μl) | cfu 1:10 ([2]; inoculum volume 60 μl) [cfu] | cfu 1:100 ([2]; inoculum volume 60 μl) [cfu] | cfu 1:1000 ([2]; inoculum volume 60 μl) | cfu undiluted ([2]; inoculum volume 60 μl) |
| --- | --- | --- | --- | --- | --- | --- | --- | --- | --- | --- | --- | --- | --- |
| MA-AHx-SSCLIDIYGVCHN FDAY-miniPeg-miniPeg-YFRAFRKFVKPFKRAFKGSSK(Biotin) [SEQ ID NO:165] | 1,700 pmol/cm2 |  |  |  |  |  |  |  |  |  |  |  |  |
| SSSCLIDMYGVCHNFDGAYDSSRG [Compound 134, AUD-AUD-AUD-AUD-SEQ ID NO:124-linker-SEQ ID NO:122] |  | — | — | — | — | 6 | 1 | — | many | 17 | 5 | — | many |
| SSSCLIDMYGVCHNFDGAYDSSRG-miniPeg-miniPeg-SSHRTNHKKNNPKKKNKTRGSSGK (SSSCLIDMYGVCHNFDGAYDSSRG[AEEA][AEEA]SSHRTNHKKNNPKKKNKTRGSSGK; not fully specified (bridges); printed as SSSCLIDMYGVCHNFDGAYDSSRG-miniPeg-miniPeg-SSHRTNHKKNNPKKKNKTRGSSGK; cysteine pairing not given here) [SEQ ID NO:163] | 54 pmol/cm2 |  |  |  |  |  |  |  |  |  |  |  |  |
